Assay results as given in ChEMBL document CHEMBL5576054, “Lead compound profiling for small molecule inhibitors of the REV1-CT/RIR Translesion synthesis Protein-Protein interaction” (Bioorg Med Chem, 2024).
≈ marks a conversion by molar mass, not a printed value. Values belong to the molecule of their own block, whether it stands above or below them. Calls of active or inactive are those of the source. The rule behind the calls is not given here.

Columns and labels:
[1] = Disruption of C-terminal REV-1/FAM-tagged Pol kappa RIR (unknown origin) interaction incubated for 1 hr by FP assay; parameters: species or system Homo sapiens
[2] = Toxicity in BALB/c nude mouse assessed as effect on body weight at 30 to 100 mg/kg, po qd for 7 days; assay type: organism-based; conditions: in vivo, 168 h, dose 30-100 mg/kg, time 7 day
[3] = Half life in CD-1 mouse at 100 mg/kg, ip by LC-MS/MS analysis; assay type: ADME, organism-based; conditions: in vivo
[4] = Dose normalized AUClast in CD-1 mouse at 100 mg/kg, ip by LC-MS/MS analysis; assay type: ADME, organism-based; conditions: in vivo
[5] = Metabolic stability in human liver microsomes assessed as intrinsic clearance at 1 uM incubated upto 60 mins by LC-MS/MS analysis; assay type: ADME, Microsome; conditions: 1 h
[6] = Half life in CD-1 mouse at 1 mg/kg, iv by LC-MS/MS analysis; assay type: ADME, organism-based; conditions: mouse, in vivo, iv, 1 mg/kg
[7] = AUClast in CD-1 mouse at 100 mg/kg, ip by LC-MS/MS analysis; assay type: ADME, organism-based; conditions: in vivo
[8] = Toxicity in BALB/c nude mouse assessed as visual signs of toxicity at 30 to 100 mg/kg, po qd for 7 days; assay type: organism-based; conditions: in vivo, 168 h, dose 30-100 mg/kg, time 7 day
[9] = Area under curve extrapolated from the last time point to infinity in CD-1 mouse at 100 mg/kg, ip by LC-MS/MS analysis; assay type: ADME, organism-based; conditions: in vivo
[10] = Toxicity in BALB/c nude mouse administered orally once daily for 7 days; conditions: in vivo, route po, time 7 day
[11] = Cmax in CD-1 mouse at 100 mg/kg, ip by LC-MS/MS analysis; assay type: ADME, organism-based; conditions: in vivo
[12] = MRT (infinity) in CD-1 mouse at 1 mg/kg, iv by LC-MS/MS analysis; assay type: ADME, organism-based; conditions: mouse, in vivo, iv, 1 mg/kg
[13] = Toxicity in BALB/c nude mouse assessed as animal death at 200 mg/kg, po qd measured for 3 days; assay type: organism-based; conditions: in vivo, 72 h, time 3 day
[14] = Dose normalized AUClast in CD-1 mouse at 1 mg/kg, iv by LC-MS/MS analysis; assay type: ADME, organism-based; conditions: in vivo
[15] = Area under curve extrapolated from the last time point to infinity in CD-1 mouse at 1 mg/kg, iv by LC-MS/MS analysis; assay type: ADME, organism-based; conditions: in vivo
[16] = AUClast in CD-1 mouse at 1 mg/kg, iv by LC-MS/MS analysis; assay type: ADME, organism-based; conditions: in vivo
[17] = Tmax in CD-1 mouse at 100 mg/kg, ip by LC-MS/MS analysis; assay type: ADME, organism-based; conditions: in vivo
[18] = Volume of distribution at steady state in CD-1 mouse at 1 mg/kg, iv by LC-MS/MS analysis; assay type: ADME, organism-based; conditions: mouse, in vivo, iv, 1 mg/kg
[19] = C0 in CD-1 mouse at 1 mg/kg, iv by LC-MS/MS analysis; assay type: ADME, organism-based; conditions: mouse, in vivo, iv, 1 mg/kg
[20] = biological target: T1, DNA repair protein REV1 (Homo sapiens, UniProt Q9UBZ9); test: Binding affinity to C-terminal human REV-1 assessed as dissociation constant incubated for 30 mins by MST assay
T1 sequence (Q9UBZ9 whole entry): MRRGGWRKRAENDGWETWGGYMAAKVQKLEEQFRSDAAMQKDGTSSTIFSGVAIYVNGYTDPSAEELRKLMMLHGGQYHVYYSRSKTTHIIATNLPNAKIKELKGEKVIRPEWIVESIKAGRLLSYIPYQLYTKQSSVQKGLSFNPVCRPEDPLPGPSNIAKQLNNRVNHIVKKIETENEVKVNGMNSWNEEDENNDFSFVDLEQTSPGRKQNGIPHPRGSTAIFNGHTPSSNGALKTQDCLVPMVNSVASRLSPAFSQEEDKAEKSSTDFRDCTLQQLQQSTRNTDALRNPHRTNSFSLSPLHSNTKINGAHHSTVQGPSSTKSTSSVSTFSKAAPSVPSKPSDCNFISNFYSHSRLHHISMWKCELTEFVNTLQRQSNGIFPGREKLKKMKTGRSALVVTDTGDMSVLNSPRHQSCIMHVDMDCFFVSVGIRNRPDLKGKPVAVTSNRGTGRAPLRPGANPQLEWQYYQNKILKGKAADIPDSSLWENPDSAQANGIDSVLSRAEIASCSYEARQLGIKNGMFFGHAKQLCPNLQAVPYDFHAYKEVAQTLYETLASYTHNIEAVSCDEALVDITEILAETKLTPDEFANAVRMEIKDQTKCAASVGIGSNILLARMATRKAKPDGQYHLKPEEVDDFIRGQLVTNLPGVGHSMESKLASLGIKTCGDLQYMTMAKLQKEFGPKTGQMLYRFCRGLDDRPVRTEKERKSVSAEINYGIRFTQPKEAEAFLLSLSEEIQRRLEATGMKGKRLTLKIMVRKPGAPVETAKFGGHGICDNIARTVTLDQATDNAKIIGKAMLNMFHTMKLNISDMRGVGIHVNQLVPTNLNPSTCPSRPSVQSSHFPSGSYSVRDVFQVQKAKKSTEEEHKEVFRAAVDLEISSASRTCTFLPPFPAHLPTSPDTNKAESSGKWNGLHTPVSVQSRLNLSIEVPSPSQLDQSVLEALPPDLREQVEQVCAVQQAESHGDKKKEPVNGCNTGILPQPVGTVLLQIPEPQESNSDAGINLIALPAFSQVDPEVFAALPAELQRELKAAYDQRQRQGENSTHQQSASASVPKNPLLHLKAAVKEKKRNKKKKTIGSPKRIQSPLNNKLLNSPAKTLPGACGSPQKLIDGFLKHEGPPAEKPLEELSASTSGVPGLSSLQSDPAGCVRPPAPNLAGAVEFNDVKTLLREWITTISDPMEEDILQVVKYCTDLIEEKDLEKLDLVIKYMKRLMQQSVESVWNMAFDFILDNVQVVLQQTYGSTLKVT

[21] = AUC (infinity) in CD-1 mouse at 100 mg/kg, ip by LC-MS/MS analysis; assay type: ADME, organism-based; conditions: in vivo
[22] = Toxicity in BALB/c nude mouse assessed as general impairment at 30 to 100 mg/kg, po qd for 7 days; assay type: organism-based; conditions: in vivo, 168 h, dose 30-100 mg/kg, time 7 day
[23] = Oral bioavailability in CD-1 mouse at 100 mg/kg by LC-MS/MS analysis; assay type: ADME, organism-based; conditions: in vivo
[24] = Toxicity in BALB/c nude mouse assessed as decrease in animal weight at 200 mg/kg, po qd measured for 2 days; assay type: organism-based; conditions: in vivo, 48 h, time 2 day
[25] = MRT (infinity) in CD-1 mouse at 100 mg/kg, ip by LC-MS/MS analysis; assay type: ADME, organism-based; conditions: in vivo
[26] = AUC (infinity) in CD-1 mouse at 1 mg/kg, iv by LC-MS/MS analysis; assay type: ADME, organism-based; conditions: in vivo
[27] = tested on: A549; test: Inhibition of cologenic survival in human A549 cells incubated for 8 to 10 days by crystal violet staining based analysis; assay type: functional, cell-based; conditions: time 8-10 day
[28] = Metabolic stability in human liver microsomes assessed as half life at 1 uM incubated upto 60 mins by LC-MS/MS analysis; assay type: ADME, Microsome; conditions: 1 h
[29] = Solubility of compound in PBS at pH 7.4; assay type: physicochemical
[30] = Solubility of compound in PBS at pH 4; assay type: physicochemical; conditions: buffer

SMILES: CCCc1cc(C(=O)OCC)c(NC(=O)C2CCNCC2)s1
- IC50 [1]: 3.8 µM

SMILES: CCCc1cc(C(=O)OC)c(NC(=O)C2CCN(C(C)=O)CC2)s1
- Activity [2]: Non-Toxic
- half-life [3]: 340 min
- AUClast/dose [4]: 22.8 ng·h/mL
- intrinsic clearance (CLint) [5]: 18.8 µL/min/mg
- t1/2 [6]: 16.9 min
- AUC(0-t) [7]: 2280 ng·h/mL
- Activity [8]: Non-Toxic
- %AUCextra [9]: 1.74%
- MTD at 168 h [10]: ≤ 100 mg/kg
- Cmax [11]: 2780 ng/mL
- MRT [12]: 13.5 min
- Activity [13]: Toxic
- AUClast/dose [14]: 37.3 ng·h/mL
- %AUCextra [15]: 2.39%
- AUC(0-t) [16]: 37.3 ng·h/mL
- IC50 [1]: 4.1 µM
- Tmax [17]: 15 min
- Vdss [18]: 5.96 L/kg
- C0 [19]: 200 ng/mL
- Kd [20]: 6.7 µM
- AUC(0-inf) [21]: 2320 ng·h/mL
- Activity [22]: Non-Toxic
- F [23]: 60.8%
- Activity [24]: Toxic
- MRT inf [25]: 169 min
- AUC(0-inf) [26]: 38.2 ng·h/mL

SMILES: C=CCOc1ccc(C(=O)Nc2sc(CCC)cc2C(=O)OCC)cc1
- IC50 [1]: 25.3 µM

SMILES: CCCc1cc(C(=O)OC)c(NC(=O)c2ccccc2)s1
- IC50 [1]: 4.7 µM

- IC50 [1]: > 100 µM
SMILES: COC(=O)c1ccsc1NC(=O)C1CCN(C(C)=O)CC1

SMILES: CCCc1cc(C(=O)OCC)c(NC(=O)c2ccccc2O)s1
- IC50 [1]: 16.7 µM

SMILES: C=CCOc1cccc(C(=O)Nc2sc(CCC)cc2C(=O)OCC)c1
- IC50 [1]: 66.2 µM

SMILES: Nc1ccc(/N=N/c2ccc3ccccc3c2)c(N)n1
- inhibition [27]: Active

- IC50 [1]: > 100 µM
SMILES: CCCc1cc(C(=O)OCC)c(NC(=O)c2cc(O)cc(O)c2)s1

SMILES: CCCc1cc(C(=O)OCC)c(NC(=O)C2CCCN(C(=O)OC(C)(C)C)C2)s1 (stereo not drawn)
- IC50 [1]: 2.5 µM

SMILES: CCCc1cc(C(=O)OCC)c(NC(=O)c2cccc(O)c2)s1
- IC50 [1]: 2.5 µM

- IC50 [1]: > 100 µM
SMILES: CC(=O)N1CCC(C(=O)NCCc2cccs2)CC1

SMILES: Nc1ccc(/N=N/c2ccc3ccccc3c2)c(N)c1
- inhibition [27]: Active

- intrinsic clearance (CLint) [5]: 27.8 µL/min/mg
- t1/2 [28]: 49.9 min
- solubility [29]: 10 µM (≈ 3.91 µg/mL)
- solubility [30]: 11.7 µM (≈ 4.57 µg/mL)
SMILES: CCCCc1ccc(-n2nnc(C(=O)N(C)C3CCS(=O)(=O)C3)c2C)cc1 (stereo not drawn)

SMILES: CCCc1cc(C(=O)OCC)c(NC(=O)C2CCN(C(C)=O)CC2)s1
- IC50 [1]: 2.9 µM
